Test results published in patent US9833497B2, “Human originated EGF domain proteins and use of the same” (CHENGDU SOURCEBIO LIMITED-LIABILITY COMPANY, priority 2013, dated 2017).

Legend:
Assay type in all cases: cell-based
[1] = tested on: E. coli DH5α; test: Antibacterial activity: MIC and growth curve against E. coli DH5α in 96-well plate; conditions: minimal inhibitory concentration against E. coli DH5α; 96-well plate, 5×10^5 CFU/mL, 37° C., judged after 8 h
Method in brief: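 Log-phase bacteria (OD600 ~0.5) resuspended in LB at 5×10^5 CFU/mL, exposed to recombinant protein at 50, 25, 12.5 μg/mL final in triplicate, 37 °C shaking at 175 rpm. OD600 read every 30 min; MIC is lowest concentration showing no growth.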

[2] = tested on: E. coli BL21; test: MIC against Gram-negative bacteria: E. coli BL21; conditions: for MIC: 10 h cultivation at 37° C.
Method in brief: (§1)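 LB broth cultures at McFarland 0.5, spun down, resuspended, diluted to 5×10^5 CFU/mL final. Two-fold serial dilutions of purified human EGF domain proteins, triplicate. 37° C, 175 rpm shaking. Endpoint: no visible growth.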

[3] = tested on: Pseudomonas aeruginosa; test: MIC against Gram-negative bacteria: Pseudomonas aeruginosa; conditions: for MIC: P. aeruginosa, 10 h cultivation at 37° C.
Method in brief: as §1

[4] = tested on: Klebsiella pneumonia; test: MIC against Gram-negative bacteria: Klebsiella pneumonia; conditions: for MIC: K. pneumonia, 10 h cultivation at 37° C.
Method in brief: as §1

[5] = tested on: Enterobacter cloacae; test: MIC against Gram-negative bacteria: Enterobacter cloacae; conditions: for MIC: E. cloacae, 10 h cultivation at 37° C.
Method in brief: as §1

[6] = tested on: Aeromonas hydrophila; test: MIC against Gram-negative bacteria: Aeromonas hydrophila; conditions: for MIC: A. hydrophila, 10 h cultivation at 37° C.
Method in brief: as §1

[7] = tested on: Citrobacter diversus; test: MIC against Gram-negative bacteria: Citrobacter diversus; conditions: for MIC: C. diversus, 10 h cultivation at 37° C.
Method in brief: as §1

[8] = tested on: Moraxella catarrhalis; test: MIC against Gram-negative bacteria: Moraxella catarrhalis; conditions: for MIC: M. catarrhalis, 10 h cultivation at 37° C.
Method in brief: as §1

[9] = tested on: Proteus mirabilis; test: MIC against Gram-negative bacteria: Proteus mirabilis; conditions: for MIC: P. mirabilis, 10 h cultivation at 37° C.
Method in brief: as §1

[10] = tested on: Proteus vulgaris; test: MIC against Gram-negative bacteria: Proteus vulgaris; conditions: for MIC: P. vulgaris, 10 h cultivation at 37° C.
Method in brief: as §1

[11] = tested on: Serratia marcescens; test: MIC against Gram-negative bacteria: Serratia marcescens; conditions: for MIC: S. marcescens, 10 h cultivation at 37° C.
Method in brief: as §1

[12] = 96-well plate, 5×10^5 CFU/mL, 37° C., 10 h
[13] = E. coli BL21, 96-well plate, 5×10^5 CFU/mL, 37° C., 10 h
[14] = Pseudomonas aeruginosa, 96-well plate, 5×10^5 CFU/mL, 37° C., 10 h
[15] = Klebsiella pneumonia, 96-well plate, 5×10^5 CFU/mL, 37° C., 10 h
[16] = Enterobacter cloacae, 96-well plate, 5×10^5 CFU/mL, 37° C., 10 h
[17] = Aeromonas hydrophila, 96-well plate, 5×10^5 CFU/mL, 37° C., 10 h
[18] = Citrobacter diversus, 96-well plate, 5×10^5 CFU/mL, 37° C., 10 h
[19] = Moraxella catarrhalis, 96-well plate, 5×10^5 CFU/mL, 37° C., 10 h
[20] = Proteus mirabilis, 96-well plate, 5×10^5 CFU/mL, 37° C., 10 h
[21] = Proteus vulgaris, 96-well plate, 5×10^5 CFU/mL, 37° C., 10 h
[22] = Serratia marcescens, 96-well plate, 5×10^5 CFU/mL, 37° C., 10 h

## PRT426 (DINECTSLSEPCRPGFSCINTVGSYTCQRNPLICARGYHASDDGTKCV; listed as Homo sapiens)
[1]
  MIC: 12.5 mg/L
[2]; E. coli BL21, 5×10^5 CFU/mL
  MIC: 50 mg/L
[3]; 5×10^5 CFU/mL
  MIC: 50 mg/L
[4]; 5×10^5 CFU/mL
  MIC: 50 mg/L
[5]; 5×10^5 CFU/mL
  MIC: 50 mg/L
[6]; 5×10^5 CFU/mL
  MIC: 12.5 mg/L
[7]; 5×10^5 CFU/mL
  MIC: 12.5 mg/L
[8]; 5×10^5 CFU/mL
  MIC: 12.5 mg/L
[9]; 5×10^5 CFU/mL
  MIC: 12.5 mg/L
[10]; 5×10^5 CFU/mL
  MIC: 25 mg/L
[11]; 5×10^5 CFU/mL
  MIC: 50 mg/L

## PRT639 (DADECLLFGQEICKNGFCLNTRPGYECYCKQGTYYDPVKLQCF; listed as Homo sapiens)
[1]
  MIC: 12.5 mg/L
[2]; [12]
  MIC E. coli BL21: 50 mg/L
[3]; [12]
  MIC P. aeruginosa: 12.5 mg/L
[4]; [12]
  MIC K. pneumonia: 50 mg/L
[5]; [12]
  MIC E. cloacae: 12.5 mg/L
[6]; [12]
  MIC A. hydrophila: 50 mg/L
[7]; [12]
  MIC C. diversus: 25 mg/L
[8]; [12]
  MIC M. catarrhalis: 12.5 mg/L
[9]; [12]
  MIC P. mirabilis: 25 mg/L
[10]; [12]
  MIC P. vulgaris: 50 mg/L
[11]; [12]
  MIC S. marcescens: 25 mg/L

## PRT1289 (LAEPCRGLQCLHGHCQASGTKGAHCVCDPGFSGELCE; listed as Homo sapiens)
[1]
  MIC: 12.5 mg/L
[2]; [13]
  MIC against E. coli BL21: 12.5 mg/L
[3]; [14]
  MIC against P. aeruginosa: 12.5 mg/L
[4]; [15]
  MIC against K. pneumonia: 12.5 mg/L
[5]; [16]
  MIC against E. cloacae: 25 mg/L
[6]; [17]
  MIC against A. hydrophila: 12.5 mg/L
[7]; [18]
  MIC against C. diversus: 12.5 mg/L
[8]; [19]
  MIC against M. catarrhalis: 50 mg/L
[9]; [20]
  MIC against P. mirabilis: 12.5 mg/L
[10]; [21]
  MIC against P. vulgaris: 50 mg/L
[11]; [22]
  MIC against S. marcescens: 25 mg/L

## PRT438 (DIDECALGRHTCHAGQDCDNTIGSYRCVVRCGSGFRRTSDGLSCQ; listed as Homo sapiens)
[1]
  MIC: 25 mg/L
[2]; E. coli BL21, 5×10^5 CFU/mL
  MIC: 12.5 mg/L
[3]; 5×10^5 CFU/mL
  MIC: 50 mg/L
[4]; 5×10^5 CFU/mL
  MIC: 12.5 mg/L
[5]; 5×10^5 CFU/mL
  MIC: 50 mg/L
[6]; 5×10^5 CFU/mL
  MIC: 12.5 mg/L
[7]; 5×10^5 CFU/mL
  MIC: 50 mg/L
[8]; 5×10^5 CFU/mL
  MIC: 12.5 mg/L
[9]; 5×10^5 CFU/mL
  MIC: 50 mg/L
[10]; 5×10^5 CFU/mL
  MIC: 12.5 mg/L
[11]; 5×10^5 CFU/mL
  MIC: 50 mg/L

## PRT124 (ITDRCSPNMCEHDGRCYQSWDDFICYCELTGYKGETCH; listed as Homo sapiens)
[1]
  MIC: 12.5 mg/L
[2]; [13]
  MIC (μg/mL) E. coli BL21: 50 µg/mL
[3]; [14]
  MIC (μg/mL) P. aeruginosa: 12.5 µg/mL
[4]; [15]
  MIC (μg/mL) K. pneumonia: 50 µg/mL
[5]; [16]
  MIC (μg/mL) E. cloacae: 12.5 µg/mL
[6]; [17]
  MIC (μg/mL) A. hydrophila: 12.5 µg/mL
[7]; [18]
  MIC (μg/mL) C. diversus: 12.5 µg/mL
[8]; [19]
  MIC (μg/mL) M. catarrhalis: 12.5 µg/mL
[9]; [20]
  MIC (μg/mL) P. mirabilis: 12.5 µg/mL
[10]; [21]
  MIC (μg/mL) P. vulgaris: 12.5 µg/mL
[11]; [22]
  MIC (μg/mL) S. marcescens: 12.5 µg/mL

## PRT632 (CKCHPLGSQEDQCHPKTGQCTCRPGVTGQACDRCQLGFFGFSIKGCRA; listed as Homo sapiens)
[1]
  MIC: 12.5 mg/L
[2]; [12]
  MIC E. coli BL21: 25 mg/L
[3]; [12]
  MIC P. aeruginosa: 12.5 mg/L
[4]; [12]
  MIC K. pneumonia: 25 mg/L
[5]; [12]
  MIC E. cloacae: 12.5 mg/L
[6]; [12]
  MIC A. hydrophila: 25 mg/L
[7]; [12]
  MIC C. diversus: 50 mg/L
[8]; [12]
  MIC M. catarrhalis: 25 mg/L
[9]; [12]
  MIC P. mirabilis: 12.5 mg/L
[10]; [12]
  MIC P. vulgaris: 25 mg/L
[11]; [12]
  MIC S. marcescens: 50 mg/L

## PRT1023 (PINYCETGLHNCDIPQRAQCIYTGGSSYTCSCLPGFSGDGQACQ; listed as Homo sapiens)
[1]
  MIC: 25 mg/L
[2]; E. coli BL21
  MIC: 12.5 mg/L
[3]
  MIC: 25 mg/L
[4]
  MIC: 12.5 mg/L
[5]
  MIC: 25 mg/L
[6]
  MIC: 12.5 mg/L
[7]
  MIC: 25 mg/L
[8]
  MIC: 12.5 mg/L
[9]
  MIC: 12.5 mg/L
[10]
  MIC: 50 mg/L
[11]
  MIC: 12.5 mg/L
